# Test system: myeloid leukemic progenitor cells [CFU-GM-(L)] from AML patients
# Test: Purging of fresh leukemic cells from AML patients, CFU-GM-(L) colony inhibition
# Assay type: cell-based
# Conditions: Homo sapiens, fresh leukemic cells from 4 patients with AML, 4-HC 100 uM/L, VP-16 5 ug/ml where combined
# Experimental: We report the results of a preclinical study comparing four different purging protocols using promyelocytic human cell line HL-60 and myeloid leukemic progenitor cells [CFU-GM-(L)] from AML patients assayed in semisolid culture. We studied the antileukemic effect of 1] complement-dependent lysis by 2 different MoAbs (M195 and F23; 40 ug/ml), reactive with distinct antigens found on early myeloid cells and monocytes, used alone and in combinations; 2] 4-Hydroperoxycyclophosphamide (4-HC) (100 uM/L) alone or 3] combined with VP-16 (5 ug/ml) and 4] a cocktail of 1-3 protocols as above (ie combined immunochemotherapy). Four logs of HL-60 tumor cell elimination was observed after 1 hour incubation with both MoAbs plus 4-HC+VP-16 while the single treatment (ie immunotherapy or chemotherapy) provided 1.5 and 3.0 logs of colony forming inhibition respectively.
# The combined treatment of MoAbs and 4-HC+VP-16 produced a 3-log reduction of CFU-GM-(L) colony formation. By comparison the mean recovery of committed normal bone marrow progenitors after incubation with MoAbs and complement was 19.5% for CFU-GM, 32.3% for BFU-E and 16.7% for CFU-MIX.
smiles,measurement,value
"O=P1(N(CCCl)CCCl)NC(OO)CCO1 (stereo not shown) [4-HC, 4-Hydroperoxycyclophosphamide]",inhibition at 100 µM,95.5%

# Reference: US5730982A, “Therapeutic use of hypervariable region of monoclonal antibody M195 and constructs thereof” (Sloan-Kettering Institute for Cancer Research, priority 1995, dated 1998)
